ChEMBL document CHEMBL5236556, “Development of Cdc2-like Kinase 2 Inhibitors: Achievements and Future Directions” (J Med Chem, 2021)
Activity calls are given as the source filed them. No cut-off for these calls is given here.

Experiments:
[1] = target: T1, Dual specificity protein kinase CLK2 (Homo sapiens, UniProt P49760)
Target sequence in this assay (P49760 whole entry): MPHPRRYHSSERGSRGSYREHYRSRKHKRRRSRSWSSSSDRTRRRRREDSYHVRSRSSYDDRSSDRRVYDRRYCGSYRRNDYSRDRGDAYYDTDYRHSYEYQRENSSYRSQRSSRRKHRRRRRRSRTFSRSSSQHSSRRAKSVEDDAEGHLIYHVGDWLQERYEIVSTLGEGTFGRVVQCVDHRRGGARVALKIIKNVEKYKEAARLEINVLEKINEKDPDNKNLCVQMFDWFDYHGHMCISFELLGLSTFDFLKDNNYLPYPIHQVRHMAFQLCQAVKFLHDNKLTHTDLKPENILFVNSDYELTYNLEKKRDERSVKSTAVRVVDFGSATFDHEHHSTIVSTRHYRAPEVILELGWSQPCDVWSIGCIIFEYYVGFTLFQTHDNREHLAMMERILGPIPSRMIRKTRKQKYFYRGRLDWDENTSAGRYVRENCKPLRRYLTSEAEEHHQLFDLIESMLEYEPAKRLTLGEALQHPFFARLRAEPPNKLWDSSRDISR

Homo sapiens [2] = species: Homo sapiens; assay: Selectivity ratio of IC50 for inhibition of human CLK3 to IC50 for inhibition of human CLK2 by biochemical caliper assay
[3] = target: T2, Dual specificity protein kinase CLK1 (Homo sapiens, UniProt P49759)
[4] = target: T1, Dual specificity protein kinase CLK2; assay: Inhibition of human CLK2 measured by DSF assay
Target sequence in this assay (P49760 whole entry, looked up): as the sequence (P49760 whole entry) above

[5] = target: T3, Dual specificity protein kinase CLK3 (Homo sapiens, UniProt P49761)
Target sequence in this assay (P49761 whole entry): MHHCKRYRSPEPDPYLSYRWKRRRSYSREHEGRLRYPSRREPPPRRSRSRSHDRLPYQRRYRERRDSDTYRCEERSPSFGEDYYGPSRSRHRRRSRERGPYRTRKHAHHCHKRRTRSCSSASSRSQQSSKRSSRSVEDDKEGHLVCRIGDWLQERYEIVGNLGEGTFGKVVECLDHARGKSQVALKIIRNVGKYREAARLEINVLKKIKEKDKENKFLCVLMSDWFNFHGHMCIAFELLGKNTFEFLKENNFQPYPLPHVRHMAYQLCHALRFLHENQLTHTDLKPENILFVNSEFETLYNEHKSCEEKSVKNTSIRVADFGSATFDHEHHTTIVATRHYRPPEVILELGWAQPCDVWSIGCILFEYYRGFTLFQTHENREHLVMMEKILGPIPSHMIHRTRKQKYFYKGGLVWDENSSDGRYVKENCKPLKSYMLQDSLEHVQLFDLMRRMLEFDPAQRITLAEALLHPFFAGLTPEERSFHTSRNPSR

[6] = target: T4, Dual specificity protein kinase CLK4 (Homo sapiens, UniProt Q9HAZ1)
[7] = target: T1, Dual specificity protein kinase CLK2; assay: Inhibition of human CLK2 at 1 uM
Target sequence in this assay (P49760 whole entry, looked up): as the sequence (P49760 whole entry) above

[8] = target: SRSF protein kinase 1 (Homo sapiens) (UniProt Q96SB4); assay: Inhibition of SRSF phosphorylation in human HeLa cells; format: cell-based
[9] = target: T1, Dual specificity protein kinase CLK2; assay: Inhibition of human CLK2 administered orally
Target sequence in this assay (P49760 whole entry): as above

[10] = target: T2, Dual specificity protein kinase CLK1; assay: Inhibition of human CLK1 administered orally
[11] = target: T3, Dual specificity protein kinase CLK3; assay: Inhibition of human CLK3 administered orally
Target sequence in this assay (P49761 whole entry): as the sequence (P49761 whole entry) above

[12] = target: T4, Dual specificity protein kinase CLK4; assay: Inhibition of human CLK4 administered orally
Cancer cell lines = assay: Antiproliferative activity against cancer cells (unknown origin); format: functional, cell-based; conditions: Homo sapiens
Mus musculus = species: Mus musculus; assay: Induction of autophagy in APAP induced liver injury mouse model; format: functional, organism-based
PC-3 = assay: Cytotoxicity against human PC-3 cells; format: functional, cell-based
MCF7 = assay: Cytotoxicity against human MCF7 cells; format: functional, cell-based
Homo sapiens [13] = species: Homo sapiens; assay: Inhibition of DYRK kinase (unknown origin) at 100 uM
[14] = target: T3, Dual specificity protein kinase CLK3; assay: Inhibition of human CLK3 assessed as residual activity at 3 uM
Target sequence in this assay (P49761 whole entry, looked up): as the sequence (P49761 whole entry) above

[15] = system: Triple-negative breast cancer cell; assay: Antitumour activity expressed in triple negative breast cells (unknown origin) with dysfunctional G1-S checkpoint; format: functional, cell-based; conditions: Homo sapiens
Lung cancer cell line = assay: Cytotoxicity against lung cancer cells (unknown origin); format: functional, cell-based; conditions: Homo sapiens
[16] = target: T2, Dual specificity protein kinase CLK1; assay: Inhibition of CLK1 (unknown origin)
[17] = target: T1, Dual specificity protein kinase CLK2; assay: Inhibition of CLK2 (unknown origin)
Target sequence in this assay (P49760 whole entry): as the sequence (P49760 whole entry) above

[18] = Antifibrotic activity in TGF-beta1 induced primary human lung fibroblast; format: functional, cell-based
T-24 = assay: Cytotoxicity against T24 cells (unknown origin) assessed as supressed cell growth; format: functional, cell-based; conditions: Homo sapiens
MDA-MB-231 = assay: Cytotoxicity against MDA-MB-231 cells (unknown origin) assessed as supressed cell growth; format: functional, cell-based; conditions: Homo sapiens

T2 sequence (P49759 whole entry): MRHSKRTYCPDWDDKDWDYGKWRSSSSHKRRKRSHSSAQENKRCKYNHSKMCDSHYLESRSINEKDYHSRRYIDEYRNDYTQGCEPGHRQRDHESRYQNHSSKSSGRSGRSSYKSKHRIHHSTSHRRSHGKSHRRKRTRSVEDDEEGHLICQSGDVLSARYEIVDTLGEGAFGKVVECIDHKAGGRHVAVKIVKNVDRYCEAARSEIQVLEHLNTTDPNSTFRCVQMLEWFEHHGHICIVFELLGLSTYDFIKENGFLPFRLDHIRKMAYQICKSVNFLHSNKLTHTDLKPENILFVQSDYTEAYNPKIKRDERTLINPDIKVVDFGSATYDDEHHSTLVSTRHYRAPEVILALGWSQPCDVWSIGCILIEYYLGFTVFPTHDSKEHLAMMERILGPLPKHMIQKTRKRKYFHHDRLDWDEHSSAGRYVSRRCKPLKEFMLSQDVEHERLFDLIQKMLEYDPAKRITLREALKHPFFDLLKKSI
T4 sequence (Q9HAZ1 whole entry): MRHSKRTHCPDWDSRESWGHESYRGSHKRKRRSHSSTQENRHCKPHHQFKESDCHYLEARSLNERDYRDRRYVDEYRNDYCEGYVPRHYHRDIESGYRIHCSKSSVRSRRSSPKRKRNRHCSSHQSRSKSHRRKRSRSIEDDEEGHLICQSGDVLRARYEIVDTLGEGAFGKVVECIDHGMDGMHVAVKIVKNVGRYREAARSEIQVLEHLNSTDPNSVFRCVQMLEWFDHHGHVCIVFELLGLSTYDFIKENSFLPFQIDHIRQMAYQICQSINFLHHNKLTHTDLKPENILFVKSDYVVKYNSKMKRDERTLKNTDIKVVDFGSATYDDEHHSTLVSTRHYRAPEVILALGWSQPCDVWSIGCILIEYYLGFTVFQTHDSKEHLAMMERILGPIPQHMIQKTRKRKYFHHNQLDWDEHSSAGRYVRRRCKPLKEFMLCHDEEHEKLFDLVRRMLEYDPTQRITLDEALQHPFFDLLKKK
SRSF protein kinase 1 (Homo sapiens), sequence (Q96SB4 whole entry): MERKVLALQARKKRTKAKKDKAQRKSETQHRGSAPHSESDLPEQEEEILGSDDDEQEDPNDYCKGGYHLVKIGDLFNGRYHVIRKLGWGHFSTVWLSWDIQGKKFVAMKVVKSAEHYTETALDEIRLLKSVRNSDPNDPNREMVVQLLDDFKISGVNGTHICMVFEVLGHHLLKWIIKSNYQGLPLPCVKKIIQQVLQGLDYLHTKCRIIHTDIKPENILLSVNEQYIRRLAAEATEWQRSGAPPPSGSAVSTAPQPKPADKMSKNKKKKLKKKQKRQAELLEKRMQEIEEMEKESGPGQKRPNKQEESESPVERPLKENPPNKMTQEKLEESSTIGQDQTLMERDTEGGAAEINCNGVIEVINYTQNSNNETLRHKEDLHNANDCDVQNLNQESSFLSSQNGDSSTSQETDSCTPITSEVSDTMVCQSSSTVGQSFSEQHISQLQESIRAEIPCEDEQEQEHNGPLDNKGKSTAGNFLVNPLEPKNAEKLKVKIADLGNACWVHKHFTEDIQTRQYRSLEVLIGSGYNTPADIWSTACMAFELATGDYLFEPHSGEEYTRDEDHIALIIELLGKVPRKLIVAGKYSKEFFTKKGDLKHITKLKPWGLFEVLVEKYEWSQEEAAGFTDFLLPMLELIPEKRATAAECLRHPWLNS

Row | Structure (SMILES) | IC50 [1] [nM] | IC50 [3] [nM] | IC50 [5] [nM] | other results
1 | CN1C(=O)/C(=C/c2ccc3c(c2)OCO3)N=C1N [LEUCETTAMINE B] | 720 |  |  | 
2 | Cc1[nH]nc2ccc(-c3cncc(OC[C@@H](N)CC(C)C)c3)cc12 |  |  |  | Ratio IC50 (Homo sapiens [2]): 225
3 | CC(C)(CO)c1ccc(C(=O)Nc2cn3cc(-c4cn[nH]c4)ccc3n2)cn1 | 2.1 | 1.1 |  | 
4 | CCOC(=O)c1c(/C(C#N)=C\N)c2ccc(Cl)c(Cl)c2n1C |  |  |  | inhibition [4]: Active
5 | O=C1NC(Nc2ccccc2)=N/C1=C\c1ccc2c(c1)OCO2 |  |  | > 10000 | IC50 [6]: 64 nM
6 | O=C1NCc2c(Cl)cc3c(-c4ccccc4)c[nH]c3c21 | 33 | 380 | 300 | 
7 | Cc1nc2ccc3sc(NC(=O)c4ccc5scnc5c4)nc3c2s1 | 68 | 51 | 346 | 
8 | c1cc(-c2ccc3[nH]ncc3c2)ccn1 |  | 113 |  | inhibition [7]: 85%
9 | c1csc(CNc2ncnc3ccc(-c4ccc5c(c4)OCO5)cc23)c1 | 680 | 37 | 470 | IC50 [6]: 50 nM
10 | COc1c(O)ccc2c(=O)c3c(O)cc4c(c3[nH]c12)C=CC(C)(C)O4 |  | 210 | > 2000 | 
11 | CC(C)c1cnn2c(NCc3ccc(-c4ccccn4)cc3)nc(N[C@H]3CC[C@H](N)CC3)nc12 | 130 | 100 | 2.9 | IC50 [6]: 89 nM
12 | CN1CCN(C(=O)C(C)(C)c2ccc(C(=O)Nc3cn4cc(-c5ccncc5)ccc4n3)cc2)CC1 |  |  |  | inhibition [8]: Dose-Dependent Effect
13 | CNc1nc(NCc2ncccn2)c2c(-c3ccc4ncccc4c3)c[nH]c2n1 |  |  |  | IC50 [9]: 0.096 nM; IC50 [10]: 4.8 nM; IC50 [11]: 6.5 nM; IC50 [12]: 0.61 nM
14 | N=C1NC(=O)/C(=C/c2ccc3c(c2)CCO3)S1 | 6800 |  |  | 
15 | O=C1NCc2ccc3c(-c4cccc(Cl)c4)c[nH]c3c21 | 510 | 88 | 28 | Activity (Cancer cell lines): Active
16 | C[C@@H](c1ccc(F)cc1)n1nnc2cnc3ccc(-c4ccc5ocnc5c4)cc3c21 |  |  | 8 | Activity (Mus musculus): Active
17 | O=[N+]([O-])c1ccccc1-n1cc(COc2cccc3cnc(Nc4cccc(Cl)c4)nc23)nn1 | 27 | 11 | > 1000 | IC50 [6]: 20 nM; IC50 (PC-3): 7000 nM; IC50 (MCF7): 4000 nM; inhibition (Homo sapiens [13]): inactive
18 | CC(C)(C)c1ccc(C(=O)Nc2cn3cc(-c4ccncc4)ccc3n2)cn1 | 2.4 | 1.1 |  | 
19 | COc1ccc(NC(=O)c2n[nH]c3ccc(-c4cncc(CN5CCCCC5)c4)cc23)cc1 | 0.822 |  |  | 
20 | CNC(=O)c1ccc(Nc2nc(OC3CCCC3)c3c(-c4ccc5nc(C)oc5c4)c[nH]c3n2)c(OC)c1 |  |  |  | Activity [14]: 60%; Activity [15]: Active; Activity (Lung cancer cell line): Active
21 | COc1cccc2c1[nH]c1c3ccncc3cc(C#N)c21 |  |  |  | IC50 [16]: 44 nM; IC50 [17]: 41 nM
22 | CC(C)n1cnc2c(Nc3cc(N)cc(Cl)c3)nc(NC3CCCCC3N)nc21 (stereo not drawn) | 6 | 17 | 1000 | IC50 [6]: 25 nM
23 | O=C(O)c1nc2ccccc2c2[nH]c3c(Cl)cccc3c12 |  | 130 | > 100 | IC50 [6]: 45 nM
24 | Cc1ccc(CNc2ncnc3ccc(-c4ccc(CO)o4)cc23)o1 |  |  | > 10000 | 
25 | O=C(Nc1cccnc1)c1c[nH]nc1-c1nc2c(-c3cccc(F)c3)cccc2[nH]1 | 11 |  |  | EC50 [18]: 18 nM
26 | COc1ccc2sc(C(=O)N(C)OC)cc2c1 |  |  |  | inhibition [7]: 73%
27 | COc1cc(Nc2nccc(-c3cnn4nc(OC)ccc34)n2)cc(C(F)(F)F)c1 |  | 13 |  | 
28 | COc1ccc2sc(C(=O)N(C)Cc3cccc(F)c3)cc2c1 | 19.1 | 7 |  | IC50 [6]: 2.3 nM; Activity (T-24): Active; Activity (MDA-MB-231): Active
29 | COc1cc(/C=C2\N=C(N)NC2=O)ccc1O [POLYANDROCARPAMINE A] | 640 | 470 | > 2000 | IC50 [6]: 470 nM
